In patent US5756488A, “Composition for improving calcium metabolism” (Kuraray Co., Ltd., priority 1995, dated 1998):

How the values were obtained:
[1] = system: vitamin D-binding protein; settings: from the literature; cited from earlier work
[2] = system: 1,25-dihydroxyvitamin D3 receptor; settings: from the literature; cited from earlier work
Acute toxicity tests = settings: in vivo
[3] = target: T1, vitamin D-binding protein (Rattus norvegicus, UniProt P04276); assay: Assay of affinity for vitamin D-binding protein (displacement of tritium-labeled 25-hydroxyvitamin D3, serum of vitamin D-deficient rat); settings: ratio of ED50 with control = 1, for Compounds 1, 2 and 3 30% replacement values were used
T1 construct: from tissue; host or cells: serum of vitamin D-deficient rat, diluted 1:10000, protein not purified
T1 sequence (P04276 17-476): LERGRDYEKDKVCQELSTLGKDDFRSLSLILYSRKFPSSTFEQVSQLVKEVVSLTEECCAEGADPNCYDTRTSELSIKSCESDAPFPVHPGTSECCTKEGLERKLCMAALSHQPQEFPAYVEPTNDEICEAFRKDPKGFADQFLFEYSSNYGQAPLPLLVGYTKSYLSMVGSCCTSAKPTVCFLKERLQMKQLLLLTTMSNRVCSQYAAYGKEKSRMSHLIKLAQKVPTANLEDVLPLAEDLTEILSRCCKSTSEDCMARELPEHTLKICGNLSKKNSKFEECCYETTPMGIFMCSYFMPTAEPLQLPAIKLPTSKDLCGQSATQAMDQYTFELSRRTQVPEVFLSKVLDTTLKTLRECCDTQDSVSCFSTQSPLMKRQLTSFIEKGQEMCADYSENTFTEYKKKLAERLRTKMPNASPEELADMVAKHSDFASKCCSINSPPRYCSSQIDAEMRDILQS
Experimental: Assay of Affinity for Vitamin D-Binding Protein
The serum of vitamin D-deficient rat was diluted 1:10000 with 3.5 mM barbiturate buffer solution (pH 8.6) containing 0.13 M NaCl. […] Then, 500 μl of the diluted solution of vitamin D deficient rat serum was added to each culture tube, which was then subjected to vortex stirring. After incubation at 4° C. for 1 hour, 250 μL of DCC suspension was added and vortex-stirred. Each of the culture tubes was allowed to stand for 15 minutes at 4° C., and centrifuged at 3000 rpm at 4° C. for 10 minutes.

Affinity for vitamin D-binding protein relative to 1α,25-dihydroxyvitamin D3 [3]	SMILES	further results
	C=C1/C(=C\C=C2/CCC[C@]3(C)[C@@H]([C@H](C)OCCC(C)(C)O)CC[C@@H]23)C[C@@H](O)C[C@@H]1O [22-oxa-1,25-dihydroxyvitamin D3]	Affinity for vitamin D-binding protein relative to 1,25-dihydroxyvitamin D3 [1]: about one six-hundredth; Affinity for the D3 receptor relative to 1,25-dihydroxyvitamin D3 [2]: one-eighth
1/500	C=C1/C(=C\C=C2/CCC[C@]3(C)[C@@H]([C@@H](C)[C@@H](C)CCC(C)(C)O)CC[C@@H]23)C[C@@H](O)C[C@@H]1O [Compound 2, (20S,22S)-22-methyl-1α,25-dihydroxyvitamin D3]	
1/220	C=C1/C(=C\C=C2/CCC[C@]3(C)[C@@H]([C@H](C)[C@H](C)CCC(C)(C)O)CC[C@@H]23)C[C@@H](O)C[C@@H]1O [Compound 3, (20R,22R)-22-methyl-1α,25-dihydroxyvitamin D3]	
2/3	C=C1/C(=C\C=C2/CCC[C@]3(C)[C@@H]([C@H](C)[C@@H](C)CCC(C)(C)O)CC[C@@H]23)C[C@@H](O)C[C@@H]1O [Compound 4, (20R,22S)-22-methyl-1α,25-dihydroxyvitamin D3]	

SMILES	Affinity for vitamin D-binding protein relative to 1α,25-dihydroxyvitamin D3 [3]	further results
C=C1/C(=C\C=C2/CCC[C@]3(C)[C@@H]([C@@H](C)[C@H](C)CCC(C)(C)O)CC[C@@H]23)C[C@@H](O)C[C@@H]1O [Compound 1, (20S,22R)-22-methyl-1α,25-dihydroxyvitamin D3]	1/500 and lowest affinity	Toxicity in acute toxicity tests (Acute toxicity tests): low toxicity; Affinity for vitamin D-binding protein relative to 1α,25-dihydroxyvitamin D3 ([3]; listed as (20S,22R)-22-methyl-1α,25-dihydroxyvitamin D3): one five-hundredth and low
